pIC50: −log10 of the molar value. Read-outs that look alike come from different tables or passages of the source.
Tests used:
[1] = test system: human SHSY5Y neural tumor cells; assay: H2O2-induced oxidative damage of SHSY5Y cells (MTT); format: cell-based; conditions: 1 μM, pre-protected 24 h, 250 μM H2O2 24 h
[2] = test system: hippocampal neurons; assay: L-cysteine-induced neuronal excitotoxicity; format: cell-based, SD rats; conditions: compound 1 μM, 24 h before inducer
Experimental: Experimental and analytical method: before the experiment, a 24-well cell culture plate was pretreated with Poly-D-lysine and placed in a cell incubator at 37° C. and 5% CO2 overnight. SD rats, 18 days pregnant, were ordered, brains of fetal rats (E18-19) were dissected, and hippocampal neurons in the brains were subjected to primary culture in a neuronal medium using a 24-well plate, and then cultured by a serum-free medium. The hippocampal neurons were cultured in a cell incubator at 37° C., 5% CO2 for 19 days (DIV19), then added with a compound to be tested (a final concentration of 1 μM) and a positive control AP5 [(2R)-amino-5-phosphonopentanoic acid(phosphonatopentanoate)] (a final concentration of 100 μM), cultured for 24 h, and then added with L-Cystine (400 μM) and NaHCO3 (10 mM). After 18 h, Hoechst3342 (2.5 μg/ml) was added for cell staining. The cells were placed in the incubator and cultured for 15 min, and photographed using the high-content fluorescence microscope, wherein 6 random non-overlapping fields were photographed for each duplicate well, and the total number of neurons and the number of dead neurons were counted with software Image J. The obtained data was used to determine whether there was a difference between a drug treatment group and a control group.
Compound treatment: 32 small molecule compounds in Embodiment 1 to Embodiment 19A were diluted with DMSO to a 1 mM mother solution; and 1 μL of mother solution was added to 1 ml of culture solution per well in a 24-well plate to a final concentration of 1 μM, wherein a positive control compound was […] of AP5 (100 mM mother solution), and a negative control was 1 μl of DMSO.

[3] = test system: male SD rats, TBI model; assay: Acute traumatic brain injury (TBI) rat model; format: in vivo; conditions: 80 mpk once a day, 7 days; vs solvent control (P<0.05)
Experimental: • Experimental and analytical method: male SD rats were used in this experiment to establish a TBI rat model, which was randomly divided into: a solvent control group (8 rats), a test product Embodiment 13B (80 mpk, 10 rats), and a test product Embodiment 26 (80 mpk, 9 rats). After TBI surgery, drugs were administered by gavage once a day for 7 consecutive days.

[4] = test system: Lepr gene mutant (DB) mice; assay: Blood glucose of DB mice; format: in vivo, mouse; conditions: 80 mpk by gavage once a day, from 8 to 20 weeks of age
Description: • Experimental and analytical method: leptin receptor gene (OB-R) was also known as diabetes gene (db), leptin receptor (Lepr) is closely related to obesity, hypertension, diabetes, lipid metabolism disorders, etc. The courses of these diseases are greatly influenced by the genetic background. Topical insulin can not control the increase in blood glucose and gluconeogenesis levels in the liver. Gene editing technologies and embryo injection technologies were used to construct Lepr gene mutant mice. […] The blood glucose in each mouse of this strain began to rise sharply at 8 weeks of age, reaching 30 mmol/L, while the blood glucose of the normal background was only about 6 mmol/L. We started drug delivery from 8 weeks of age. Test small molecules were Embodiment 28, Embodiment 29 and Embodiment 30, all of which were at a dosage of 80 mpk, and delivered by gavage once a day.

[5] = test system: OCI-LY3 (human diffuse large B-cell lymphoma cells); assay: Cell proliferation assay, OCI-LY3; format: cell-based; conditions: for pIC50: Homo sapiens, OCI-Ly3, 72 h
Experimental: (§1) • Experimental and analytical method: cells were inoculated into a 96-well cell culture plate with a lid at a maximum concentration of 10 μM for a test compound, and diluted in three folds to a series of test concentrations, and cells were incubated at 37° C., 5% CO2 for 72 h. The concentration of DMSO was 0.5%, 100 μl of medium was taken from each well. 100 μl of reagent (Celltitute Glo Assay Kit) was added to each well, and a flat plate was shaken on a plate shaker (protected from light) for 2 min. A culture plate was incubated (protected from light) at room temperature for 30 min. Chemiluminescence values were recorded by a multi-plate plate reader, and the experimental results were as follows:
(§2) U937 (histiocytic lymphoma cells), OCI-LY3 (human diffuse large B-cell lymphoma cells), U2932 (human diffuse large B-cell lymphoma cells), and HT cells (human mixed lymphoma cells) were analyzed in the table for experimental analysis of cell proliferation.

[6] = test system: U937 (histiocytic lymphoma cells); assay: Cell proliferation assay, U937; format: cell-based; conditions: Homo sapiens, U-937, 72 h
Experimental: as §1, §2

[7] = test system: U2932 (human diffuse large B-cell lymphoma cells); assay: Cell proliferation assay, U2932; format: cell-based; conditions: U2932, 72 h
Experimental: as §1, §2

[8] = test system: HT cells (human mixed lymphoma cells); assay: Cell proliferation assay, HT; format: cell-based
Experimental: as §1, §2

[9] = test system: ICR mice; assay: Sleep of mice at subthreshold hypnotic dosage of sodium pentobarbital; format: in vivo, mouse; conditions: Diazepam 1 mg/kg; vs blank control
Experimental: After adaptive feeding of mice, 50 qualified animals were selected according to their body weights and divided into 5 groups by Excel complete randomization: a blank control group, a positive control group (Diazepam), and high-, medium- and low-dosage groups of test product, with 10 animals in each group. Animals in each group should be administrated with drug solutions and vehicles. After 1 h of administration, the animals in each group were intraperitoneally injected with a maximum subthreshold dosage of sodium pentobarbital (firstly, a pre-experiment was conducted to determine a maximum subthreshold hypnotic dosage of sodium pentobarbital).

[10] = test system: primary cultured neurons in rats (cerebral cortex); assay: Oxygen glucose deprivation (OGD) injury of primary cultured rat neurons; format: cell-based
Description: Experimental and analytical method: rats, 15 days pregnant, were ordered, brains of fetal rats (E15-16) were dissected, and neurons in the cerebral cortex were subjected to primary culture in a neuronal medium for 14 days (DIV 14) using 48-well plates, followed by an OGD experiment. During the OGD experiment, a neuronal culture solution was replaced by a glucose- and oxygen-free culture solution (95% N2/5% CO2 balance), and the neurons were subjected to OGD treatment in an OGD chamber. Then, the oxygen- and glucose-free culture medium was replaced by a normal neuronal culture solution, which was then cultured in a 95% Air/5% CO2 incubator for 24 h for neuronal activity analysis. By staining with Hoechst 33342 and Propidium iodide, a high-content fluorescence microscope was used for photographing, wherein 20 random non-overlapping visual fields were photographed per duplicate well, and the total number of neurons and the number of dead neurons were counted by software (Thermo Scientific™, HCS Studio Cell Analysis Software). […]

[11] = test system: Raji-Luc hematologic tumor cells in NOD-Scid immunodeficient mice; assay: NOD-Scid mice inoculated with hematologic tumor cells Raji-Luc; conditions: 100 mpk by gavage once a day

For C[C@H]1CC[C@@]2(OC1)O[C@H]1C[C@H]3[C@@H]4CC[C@@H]5CC(NC(=O)C6CCN(C)CC6)CC[C@]5(C)[C@H]4CC[C@]3(C)[C@H]1[C@@H]2C (stereo partly drawn) [Embodiment 2], which “protection of H2O2-induced neural tumor cell damages” value [1] is on record?
Its value is “significantly protected”.

What about the “protective effects on L-Cystine (400 μM)-induced neuronal excitotoxicity” value [2] of the same compound?
Its value is “protective effects”.

For C[C@H]1CC[C@@]2(OC1)O[C@H]1C[C@H]3[C@@H]4CC[C@@H]5CC(NC(=O)CC(=O)N6CCN(C7CCN(C)CC7)CC6)CC[C@]5(C)C4CC[C@]3(C)[C@H]1[C@@H]2C (stereo partly drawn) [Embodiment 26], which “early brain apoptosis rates” value [3] is on record?
Its value is “significantly lower”.

What about the total apoptosis rates [3] of the same compound?
The total apoptosis rates was “significantly lower”.

How did the blood glucose [4] turn out when COC(=O)N1CCN(C(=O)CC(=O)NC2CC[C@]3(C)C4CC[C@]5(C)[C@@H]6[C@H](C[C@H]5[C@@H]4CC[C@@H]3C2)O[C@]2(CC[C@H](C)CO2)[C@H]6C)CC1 (stereo partly drawn) [Embodiment 28] was run?
The blood glucose was “certain blood glucose-reducing effects”.

C[C@H]1CC[C@@]2(OC1)O[C@H]1C[C@H]3[C@@H]4CC[C@@H]5CC(NC(=O)CCN6CCN(CCN(C)C)CC6)CC[C@]5(C)[C@H]4CC[C@]3(C)[C@H]1[C@@H]2C (stereo partly drawn) [Embodiment 13] was tested. Which pIC50 [5] did it give?
Its pIC50 is 5.36.

And the “protection of H2O2-induced neural tumor cell damages” value [1]?
Its value is “significantly protected”.

What about the “protective effects on L-Cystine (400 μM)-induced neuronal excitotoxicity” value [2] of the same compound?
The value was “protective effects”.

And the IC50 ([6]; low sugar, read-out: U937 (IC50, uM) Low sugar)?
The IC50 was 2.28 µM.

What about the IC50 ([6]; normal sugar, read-out: U937 (IC50, uM) Normal sugar) of the same compound?
Its IC50 is 4.04 µM.

What about the pIC50 [7] of the same compound?
The pIC50 was 5.92.

How did the pIC50 [5] turn out when C[C@H]1CC[C@@]2(OC1)O[C@H]1C[C@H]3[C@@H]4CC[C@@H]5C[C@@H](NC(=O)CC(=O)N6CCN(CCN(C)C)CC6)CC[C@]5(C)C4CC[C@]3(C)[C@H]1[C@@H]2C (stereo partly drawn) [Embodiment 13A] was run?
Its pIC50 is 5.75.

What about the “inhibitory effect on the proliferation of OCI-LY3 cell line (comparison in words)” value ([5]; among compounds of Table 13) of the same compound?
The value was “best inhibitory effect”.

What about the pIC50 [7] of the same compound?
Its pIC50 is 6.37.

What about the pIC50 ([8]; Homo sapiens, HT, 72 h) of the same compound?
Its pIC50 is 5.82.

What about the “inhibitory effect on the proliferation of HT cells (comparison in words)” value ([8]; among compounds of Table 13) of the same compound?
Its value is “best inhibitory effect”.

Which results are given for CN1C(=O)CN=C(c2ccccc2)c2cc(Cl)ccc21 [Diazepam, reference compound]?
sleep latency [9]: significantly shortened; sleep time [9]: significantly prolonged

With O=C1NCCc2c(OCCCCN3CCCCC3)cccc21 [DPQ] as the compound, how does the “protective effect on neuronal damages” value [10] read?
The value was “significant protective effect”.

And the “proportion of dead cells” value ([10]; without OGD 10.32%, DMSO negative control 52.31%)?
Its value is 22.22%.

C[C@H]1CC[C@@]2(OC1)O[C@H]1C[C@H]3[C@@H]4CC[C@@H]5CC(NC(=O)CC(=O)N6CCN(CCn7ccnc7)CC6)CC[C@]5(C)C4CC[C@]3(C)[C@H]1[C@@H]2C (stereo partly drawn) [Embodiment 40] was tested. Which “tumor killing effect (in-vivo fluorescence intensity)” value [11] did it give?
Its value is “relatively good tumor killing effects”.

How did the blood glucose [4] turn out when CCN1CCC(N2CCN(C(=O)CC(=O)NC3CC[C@]4(C)C5CC[C@]6(C)[C@@H]7[C@H](C[C@H]6[C@@H]5CC[C@@H]4C3)O[C@]3(CC[C@H](C)CO3)[C@H]7C)CC2)CC1 (stereo partly drawn) [Embodiment 29] was run?
Its blood glucose is “certain blood glucose-reducing effects”.

How did the blood glucose [4] turn out when C[C@H]1CC[C@@]2(OC1)O[C@H]1C[C@H]3[C@@H]4CC[C@@H]5CC(NC(=O)CC(=O)N6CCC(N7CCN(CC#N)CC7)CC6)CC[C@]5(C)C4CC[C@]3(C)[C@H]1[C@@H]2C (stereo partly drawn) [Embodiment 30] was run?
Its blood glucose is “best blood glucose-reducing effect and could reach the level of normal background mice”.

Which “tumor killing effect (in-vivo fluorescence intensity)” value [11] does the source give for C[C@H]1CC[C@@]2(OC1)O[C@H]1C[C@H]3[C@@H]4CC[C@@H]5CC(NC(=O)CC(=O)N6CCCN(CCN(C)C)CC6)CC[C@]5(C)C4CC[C@]3(C)[C@H]1[C@@H]2C (stereo partly drawn) [Embodiment 39] here?
The value was “relatively good tumor killing effects”.
